From paper PMC10044120, “Potent and selective covalent inhibition of the papain-like protease from SARS-CoV-2” (Nature Communications, 2023)
Read-outs that look alike come from different tables or passages of the source.

Columns and labels:
PLpro from SARS-CoV-2 = PLpro from SARS-CoV-2 (Severe acute respiratory syndrome coronavirus 2, UniProt P0DTD1); experiment: biochemical; type: biochemical
SARS-CoV-2 PLpro [1] = target: T1, SARS-CoV-2 PLpro (Severe acute respiratory syndrome coronavirus 2, UniProt P0DTD1); experiment: biochemical; conditions: PLpro 50 nM, Ub-rhodamine110
SARS-CoV-2 PLpro [2] = target: T1, SARS-CoV-2 PLpro; experiment: biochemical; conditions: PLpro 10 nM, ISG15-CHOP2
USP30 = target: T2, USP30 (Homo sapiens, UniProt Q70CQ3); experiment: biochemical; conditions: USP30 10 nM, Ub-rhodamine110
T2 construct: purchased LifeSensors, Inc. (Malvern, PA)
T2 sequence (Q70CQ3 whole entry): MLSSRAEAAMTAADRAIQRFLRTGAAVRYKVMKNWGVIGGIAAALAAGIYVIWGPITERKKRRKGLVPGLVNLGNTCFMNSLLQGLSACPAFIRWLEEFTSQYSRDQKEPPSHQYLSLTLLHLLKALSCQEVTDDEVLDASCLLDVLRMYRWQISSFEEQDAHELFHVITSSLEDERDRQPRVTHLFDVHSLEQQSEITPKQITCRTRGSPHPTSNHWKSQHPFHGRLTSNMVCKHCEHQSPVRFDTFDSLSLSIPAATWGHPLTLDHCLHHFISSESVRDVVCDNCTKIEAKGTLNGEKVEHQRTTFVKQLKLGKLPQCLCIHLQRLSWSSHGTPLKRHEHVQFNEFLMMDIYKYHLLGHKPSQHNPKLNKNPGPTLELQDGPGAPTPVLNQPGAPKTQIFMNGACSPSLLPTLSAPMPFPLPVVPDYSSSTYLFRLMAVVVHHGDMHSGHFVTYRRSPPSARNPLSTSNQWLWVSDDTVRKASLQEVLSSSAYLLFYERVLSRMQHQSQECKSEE

USP15 = target: T3, USP15 (Homo sapiens, UniProt Q9Y4E8); experiment: DUB selectivity assay, USP15 (Ub-rhodamine110); type: biochemical; conditions: USP15 1 nM, Ub-rhodamine110; read-out: IC50
T3 construct: purchased LifeSensors, Inc. (Malvern, PA)
T3 sequence (Q9Y4E8 1-981): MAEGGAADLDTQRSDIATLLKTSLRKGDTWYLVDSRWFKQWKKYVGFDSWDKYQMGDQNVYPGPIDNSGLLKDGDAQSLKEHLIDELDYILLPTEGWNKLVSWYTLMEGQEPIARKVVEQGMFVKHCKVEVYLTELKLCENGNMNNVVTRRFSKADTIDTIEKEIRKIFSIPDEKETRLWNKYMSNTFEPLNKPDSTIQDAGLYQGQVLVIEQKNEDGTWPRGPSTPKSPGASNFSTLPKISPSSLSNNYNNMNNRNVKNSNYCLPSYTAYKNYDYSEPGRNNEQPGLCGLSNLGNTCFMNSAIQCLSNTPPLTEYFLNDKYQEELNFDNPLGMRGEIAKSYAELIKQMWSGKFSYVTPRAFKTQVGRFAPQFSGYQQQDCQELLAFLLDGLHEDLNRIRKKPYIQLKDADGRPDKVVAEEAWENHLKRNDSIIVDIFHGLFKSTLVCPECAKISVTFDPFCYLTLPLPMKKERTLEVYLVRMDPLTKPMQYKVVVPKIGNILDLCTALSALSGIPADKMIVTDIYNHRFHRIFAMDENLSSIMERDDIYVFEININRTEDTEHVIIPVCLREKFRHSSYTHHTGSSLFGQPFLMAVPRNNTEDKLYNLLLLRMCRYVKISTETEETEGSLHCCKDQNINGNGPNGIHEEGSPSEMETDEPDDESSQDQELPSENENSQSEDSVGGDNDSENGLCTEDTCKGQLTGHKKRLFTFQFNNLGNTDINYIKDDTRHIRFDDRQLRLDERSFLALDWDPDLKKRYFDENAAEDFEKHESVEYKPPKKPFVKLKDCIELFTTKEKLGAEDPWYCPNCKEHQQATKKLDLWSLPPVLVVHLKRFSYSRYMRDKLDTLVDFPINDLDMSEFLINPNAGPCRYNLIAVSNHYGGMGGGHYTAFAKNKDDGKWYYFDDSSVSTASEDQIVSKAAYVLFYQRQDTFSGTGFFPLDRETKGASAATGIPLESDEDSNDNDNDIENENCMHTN

USP8 = target: T4, USP8 (Homo sapiens, UniProt P40818); experiment: biochemical; conditions: USP8 10 nM, Ub-rhodamine110
T4 construct: USP2c, USP4, USP7, USP8c, USP15, USP30WT, and UCH-L1; purchased LifeSensors, Inc. (Malvern, PA)
T4 sequence (P40818 777-1109): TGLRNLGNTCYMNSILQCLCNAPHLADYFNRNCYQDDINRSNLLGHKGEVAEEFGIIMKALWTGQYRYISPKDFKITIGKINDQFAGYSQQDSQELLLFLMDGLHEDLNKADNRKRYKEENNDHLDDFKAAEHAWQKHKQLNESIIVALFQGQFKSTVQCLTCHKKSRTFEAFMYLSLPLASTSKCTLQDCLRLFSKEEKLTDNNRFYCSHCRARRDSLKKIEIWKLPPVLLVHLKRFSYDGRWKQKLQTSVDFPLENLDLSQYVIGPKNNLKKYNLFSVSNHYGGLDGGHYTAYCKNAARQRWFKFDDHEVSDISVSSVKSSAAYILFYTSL

USP7 = target: T5, USP7 (Homo sapiens, UniProt Q93009); experiment: biochemical; conditions: USP7 5 nM, Ub-CHOP2
T5 construct: purchased LifeSensors, Inc. (Malvern, PA)
T5 sequence (Q93009 whole entry): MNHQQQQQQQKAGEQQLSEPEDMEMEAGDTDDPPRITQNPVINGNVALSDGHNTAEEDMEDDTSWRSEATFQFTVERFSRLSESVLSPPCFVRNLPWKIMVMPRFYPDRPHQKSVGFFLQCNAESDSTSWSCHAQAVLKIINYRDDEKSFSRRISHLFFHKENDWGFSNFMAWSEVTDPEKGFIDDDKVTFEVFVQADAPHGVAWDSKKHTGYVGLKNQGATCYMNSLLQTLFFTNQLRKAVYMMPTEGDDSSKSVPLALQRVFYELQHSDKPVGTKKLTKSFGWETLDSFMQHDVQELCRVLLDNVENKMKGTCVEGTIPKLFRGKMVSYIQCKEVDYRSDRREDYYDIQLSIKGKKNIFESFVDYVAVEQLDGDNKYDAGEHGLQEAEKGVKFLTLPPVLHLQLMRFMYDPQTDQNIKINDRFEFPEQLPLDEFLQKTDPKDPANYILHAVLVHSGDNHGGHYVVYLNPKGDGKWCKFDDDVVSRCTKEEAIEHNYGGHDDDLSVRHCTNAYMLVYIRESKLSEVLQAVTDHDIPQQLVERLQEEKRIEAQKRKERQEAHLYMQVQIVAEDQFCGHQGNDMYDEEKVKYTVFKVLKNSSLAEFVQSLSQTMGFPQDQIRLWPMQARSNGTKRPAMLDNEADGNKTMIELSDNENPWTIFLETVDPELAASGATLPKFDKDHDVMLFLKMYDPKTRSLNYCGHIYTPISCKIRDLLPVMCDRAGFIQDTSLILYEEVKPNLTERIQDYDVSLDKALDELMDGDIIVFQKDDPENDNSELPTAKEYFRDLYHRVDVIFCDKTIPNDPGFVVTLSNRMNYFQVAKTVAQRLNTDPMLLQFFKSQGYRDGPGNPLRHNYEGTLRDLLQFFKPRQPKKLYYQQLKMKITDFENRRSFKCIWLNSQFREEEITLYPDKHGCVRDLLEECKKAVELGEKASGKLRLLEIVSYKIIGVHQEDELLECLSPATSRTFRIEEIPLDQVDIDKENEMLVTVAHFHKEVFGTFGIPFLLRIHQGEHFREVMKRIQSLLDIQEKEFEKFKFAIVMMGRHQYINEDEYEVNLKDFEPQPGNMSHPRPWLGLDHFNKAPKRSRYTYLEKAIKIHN

USP4 = target: T6, USP4 (Homo sapiens, UniProt Q13107); experiment: DUB selectivity assay, USP4 (Ub-rhodamine110); type: biochemical; conditions: USP4 10 nM, Ub-rhodamine110; read-out: IC50
T6 construct: purchased LifeSensors, Inc. (Malvern, PA)
T6 sequence (Q13107 1-963): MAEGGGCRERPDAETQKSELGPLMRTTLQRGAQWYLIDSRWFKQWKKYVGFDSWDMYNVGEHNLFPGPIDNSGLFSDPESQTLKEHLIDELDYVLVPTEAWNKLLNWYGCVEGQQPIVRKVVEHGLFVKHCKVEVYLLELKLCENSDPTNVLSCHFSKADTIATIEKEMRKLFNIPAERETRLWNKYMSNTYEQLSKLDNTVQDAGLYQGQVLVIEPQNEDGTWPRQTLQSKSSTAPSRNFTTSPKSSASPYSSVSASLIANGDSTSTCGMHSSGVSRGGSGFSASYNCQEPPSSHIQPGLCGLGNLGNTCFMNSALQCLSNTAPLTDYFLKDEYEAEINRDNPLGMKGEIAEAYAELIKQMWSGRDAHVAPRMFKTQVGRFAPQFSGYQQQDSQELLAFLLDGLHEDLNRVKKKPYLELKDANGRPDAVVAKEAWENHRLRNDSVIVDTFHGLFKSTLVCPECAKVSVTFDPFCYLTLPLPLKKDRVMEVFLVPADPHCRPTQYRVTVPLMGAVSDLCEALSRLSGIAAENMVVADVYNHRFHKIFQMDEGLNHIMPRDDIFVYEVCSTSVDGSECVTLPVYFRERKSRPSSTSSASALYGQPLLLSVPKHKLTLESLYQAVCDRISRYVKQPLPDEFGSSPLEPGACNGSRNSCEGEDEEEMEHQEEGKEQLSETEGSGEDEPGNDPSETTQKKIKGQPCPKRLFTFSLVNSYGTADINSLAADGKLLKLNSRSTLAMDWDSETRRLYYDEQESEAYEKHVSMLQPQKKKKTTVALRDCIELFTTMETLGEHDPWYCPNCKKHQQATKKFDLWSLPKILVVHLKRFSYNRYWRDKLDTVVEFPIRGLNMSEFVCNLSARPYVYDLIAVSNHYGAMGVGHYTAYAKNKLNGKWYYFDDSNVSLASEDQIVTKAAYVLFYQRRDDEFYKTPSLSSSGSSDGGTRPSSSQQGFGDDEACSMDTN

USP2 = target: T7, USP2 (Homo sapiens, UniProt O75604); experiment: biochemical; conditions: USP2 10 nM, Ub-rhodamine110
T7 construct: USP2c, USP4, USP7, USP8c, USP15, USP30WT, and UCH-L1; purchased LifeSensors, Inc. (Malvern, PA)
T7 sequence (O75604 267-599): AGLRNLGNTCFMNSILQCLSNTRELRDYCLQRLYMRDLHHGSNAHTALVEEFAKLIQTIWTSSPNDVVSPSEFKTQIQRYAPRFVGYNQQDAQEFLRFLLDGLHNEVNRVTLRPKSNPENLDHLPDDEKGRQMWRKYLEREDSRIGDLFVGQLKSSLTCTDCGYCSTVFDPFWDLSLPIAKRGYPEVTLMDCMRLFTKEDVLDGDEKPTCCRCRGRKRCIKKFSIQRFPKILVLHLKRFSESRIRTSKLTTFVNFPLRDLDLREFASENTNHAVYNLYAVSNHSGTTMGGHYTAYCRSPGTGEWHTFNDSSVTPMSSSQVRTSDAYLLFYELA

UCHL1 = target: T8, UCHL1 (Homo sapiens, UniProt P09936); experiment: biochemical; conditions: UCHL1 10 nM, Ub-rhodamine110
T8 construct: purchased LifeSensors, Inc. (Malvern, PA)
T8 sequence (P09936 whole entry): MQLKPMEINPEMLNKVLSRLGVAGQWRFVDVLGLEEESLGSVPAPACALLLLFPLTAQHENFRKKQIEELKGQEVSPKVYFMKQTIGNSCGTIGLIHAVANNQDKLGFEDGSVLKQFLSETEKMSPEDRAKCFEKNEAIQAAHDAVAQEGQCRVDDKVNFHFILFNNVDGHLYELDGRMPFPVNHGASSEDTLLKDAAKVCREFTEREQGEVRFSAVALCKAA

[3] = test system: SARS-CoV-2 isolate USA-WA1/2020; conditions: read-out: cytopathic effect, % cell viability, duplicate wells
Vero E6 cells = conditions: African green monkey, 48 h
SARS-CoV PLpro = conditions: cited from earlier work
[4] = test system: viral replication in Vero E6 cells; conditions: viral replication in Vero E6 cells; cited from earlier work
in vitro = conditions: African green monkey, cytotoxicity, %cell viability
[5] = test system: SARS-CoV-2 isolate USA-WA1/2020; experiment: microbe, parasite or virus in culture; conditions: duplicate wells

CC(=O)Nc1ccc(C)c(C(=O)N[C@H](C)c2cccc3ccccc23)c1 [Compound 15, (R)-5-acetamido-2-methyl-N-(1-(naphthalen-1-yl)ethyl)benzamide]
remaining activity at 0.02 µM (PLpro from SARS-CoV-2; 0.5 h, inhibitor 0.02 uM): 115% | remaining activity at 0.06 µM (PLpro from SARS-CoV-2; 0.5 h, inhibitor 0.06 uM): 104% | remaining activity at 0.2 µM (PLpro from SARS-CoV-2; 0.5 h, inhibitor 0.20 uM): 110% | remaining activity at 2.01 µM (PLpro from SARS-CoV-2; 0.5 h, inhibitor 2.01 uM): 61.8% | remaining activity at 6.34 µM (PLpro from SARS-CoV-2; 0.5 h, inhibitor 6.34 uM): 56.9% | remaining activity at 20 µM (PLpro from SARS-CoV-2; 0.5 h, inhibitor 20.00 uM): 26.7% | IC50 (PLpro from SARS-CoV-2; after 30-min incubation, purified PLpro, Z-RLRGG-AMC substrate): 6.2 µM | Hill slope (SARS-CoV-2 PLpro [1]): 0.376 | IC50 (SARS-CoV-2 PLpro [1]): > 30 µM | Hill slope (SARS-CoV-2 PLpro [2]): 0.969 | IC50 (SARS-CoV-2 PLpro [2]): > 30 µM | IC50 (USP30): > 30 µM | IC50 (USP15): > 30 µM | IC50 (USP8): > 30 µM | IC50 (USP7): > 30 µM | IC50 (USP4): > 30 µM | IC50 (USP2): > 30 µM | IC50 (UCHL1): > 30 µM | inhibition ([3]; [inhibitor] 8.33 uM, 8.33 µM): 3.31% | inhibition ([3]; [inhibitor] 16.67 uM, 16.67 µM): 6.9% | cytotoxicity, %cell viability (Vero E6 cells; 2.08 µM): 75.89% | cytotoxicity, %cell viability (Vero E6 cells; 8.33 µM): 83.23% | cytotoxicity, %cell viability (Vero E6 cells; 16.67 µM): 80.07% | cytotoxicity, %cell viability (Vero E6 cells; 33.33 µM): 59.25% | IC50 (SARS-CoV PLpro): 2.6 µM | EC50 [4]: 13.1 µM | viability at 48 h, 2.08 µM (in vitro): 85.5% | viability at 48 h, 8.33 µM (in vitro): 85.8% | viability at 48 h, 16.67 µM (in vitro): 81.3% | viability at 48 h, 33.33 µM (in vitro): 64.9% | inhibition at 8.33 µM ([5]; Severe acute respiratory syndrome coronavirus 2, Vero C1008, read-out: cytopathic effect, % cell viability, [inhibitor] 8.33 uM): 5.51% | inhibition at 16.67 µM ([5]; Severe acute respiratory syndrome coronavirus 2, Vero C1008, read-out: cytopathic effect, % cell viability, [inhibitor] 16.67 uM): 8.63%
